Measured values from patent publication EP0863880B1, “NOVEL 1-AR(ALK)YL-IMIDAZOLIN-2-ONES CONTAINING A DISUBSTITUTED AMINE RADICAL IN THE 4TH POSITION, HAVING AN ANTI-CONVULSIVE EFFECT, AND PROCESS FOR THEIR PRODUCTION” (elbion AG, priority 1995, dated 1997).

What was measured:
[1] = test system: s.c. Pentetrazol; assay: s.c. pentetrazole (PTZ) test, mouse i.p.; assay type: in vivo; conditions: Maus i.p.
[2] = test system: maximaler Elektroschock; assay: maximal electroshock (MES) test, mouse i.p.; assay type: in vivo; conditions: Maus i.p.
[3] = octanol/water partition coefficient; assay type: physicochemical; conditions: Octanol/Wasser, read-out: log P (Verteilungskoeffizient Octanol/Wasser)
[4] = test system: s.c. Pentetrazol-Test; assay: s.c. pentetrazole test, rat
[5] = test system: Neurotoxizität; conditions: Ratte, p.o.
[6] = test system: maximalen Elektroschock; assay: maximal electroshock test, rat p.o.; conditions: po, read-out: ED50 (p.o.)

| Structure (SMILES) | logP [3] | Wirkung in % der geschützten Tiere ([1]; Dosis 100 mg/kg) [%] | Wirkung in % der geschützten Tiere ([2]; Dosis 100 mg/kg) [%] | Wirkung in % der geschützten Tiere ([2]; Dosis 300 mg/kg) [%] | Wirkung in % der geschützten Tiere ([1]; Dosis 300 mg/kg) [%] | also measured |
| --- | --- | --- | --- | --- | --- | --- |
| O=C1N=C(N2CCOCC2)CN1c1ccccc1 [Verbindung 1] | 0.64 | 30 | 30 |  |  |  |
| O=C1N=C(N2CCOCC2)CN1c1ccc(F)cc1 [Verbindung 9] | 0.97 | 100 | 30 |  |  |  |
| CN(C)C1=NC(=O)N(c2ccc(Cl)cc2)C1 [Verbindung 6] | 1.61 | 20 |  | 100 |  |  |
| O=C1N=C(N2CCOCC2)CN1c1ccc(Cl)cc1 [Verbindung 2, 1-(4-Chlorphenyl)-4-morpholinoimidazolin-2-on] | 1.48 |  |  | 30 |  | ED50 [4]: 16 mg/kg; Wirkung in % der geschützten Tiere ([1]; Dosis 30 mg/kg): 70%; NT50 [5]: > 400 mg/kg; ED50 [6]: 21 mg/kg |
| O=C1N=C(N2CCOCC2)CN1Cc1ccccc1 [Verbindung 4] | 0.48 |  |  | 30 | 30 |  |
| CCCC(CCC)C(=O)O [Valproat, reference compound] |  | 30 | 0 |  |  |  |
| O=C1N=C(N2CCOCC2)CN1c1cccc(Cl)c1 [Verbindung 10] | 1.28 |  |  | 10 | 70 |  |
| NC(=O)N1c2ccccc2C=Cc2ccccc21 [Carbamazepin, reference compound] |  | 0 | 100 |  |  |  |

Now from value to compound, other results behind:

| logP [3] | Structure (SMILES) | Wirkung in % der geschützten Tiere ([1]; Dosis 100 mg/kg) [%] | Wirkung in % der geschützten Tiere ([2]; Dosis 100 mg/kg) [%] | Wirkung in % der geschützten Tiere ([2]; Dosis 300 mg/kg) [%] | Wirkung in % der geschützten Tiere ([1]; Dosis 300 mg/kg) [%] | also measured |
| --- | --- | --- | --- | --- | --- | --- |
| 1.53 | COc1ccc(N2CC(N3CCCCC3)=NC2=O)cc1 [Verbindung 7] | 100 |  | 100 |  |  |
| 2.29 | O=C1N=C(N2CCCCC2)CN1c1ccc(Cl)cc1 [Verbindung 3] | 100 | 100 |  |  |  |
| 1.45 | O=C1N=C(N2CCOCC2)CN1c1ccc(Br)cc1 [Verbindung 8] | 100 |  | 30 |  |  |
| 2.56 | O=C1N=C(N2CCCCCC2)CN1c1ccc(Cl)cc1 [Verbindung 11] |  |  | 100 | 40 |  |
| 2.17 | CN1CCN(C2=NC(=O)N(c3ccc(Cl)cc3)C2)CC1 [Verbindung 5] |  |  | 100 | 100 |  |
